Experimental data as given in patent US7425557B2, “Inhibitors of glycogen synthase kinase 3” (Novartis Vaccines and Diagnostics, Inc., priority 1998, dated 2008).
pIC50: −log10 of the molar value.

Molecular target: human GSK3β (Homo sapiens, UniProt P49841)
Test: Screening for GSK3 inhibitory activity using a cell-free assay
Assay type: biochemical
Details: read-out: IC50 with respect to GSK3
Summary of the method: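 Radiometric cell-free assay with recombinant human GSK3β phosphorylating a biotinylated peptide substrate for 3 h. Reactions were stopped with 50 μM ATP/20 mM EDTA and captured on streptavidin plates. Incorporated radiolabel was counted by scintillation and plotted against compound concentration.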

human GSK3β, sequence (P49841 whole entry): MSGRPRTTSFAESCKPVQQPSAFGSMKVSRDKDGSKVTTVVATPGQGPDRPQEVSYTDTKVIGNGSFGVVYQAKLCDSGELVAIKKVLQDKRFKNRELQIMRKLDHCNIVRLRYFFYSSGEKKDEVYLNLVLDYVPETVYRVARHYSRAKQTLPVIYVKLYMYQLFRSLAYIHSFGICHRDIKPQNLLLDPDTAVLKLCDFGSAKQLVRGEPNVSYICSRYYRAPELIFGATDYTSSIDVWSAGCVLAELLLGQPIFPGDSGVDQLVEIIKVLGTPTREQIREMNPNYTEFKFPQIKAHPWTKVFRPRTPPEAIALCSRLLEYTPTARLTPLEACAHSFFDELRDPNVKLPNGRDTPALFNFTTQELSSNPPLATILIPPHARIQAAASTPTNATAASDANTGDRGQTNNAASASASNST

SMILES	pIC50
NC(=O)c1ccc(-c2ccnc(NCCCc3nc(Cl)c(Cl)[nH]3)n2)cc1 [4-(2-{[3-(4,5-dichloroimidazolyl)propyl]amino}pyrimidin-4-yl)benzamide]	≥ 6.00
N#Cc1ccc(-c2nc(NCCNc3ccc([N+](=O)[O-])cn3)ncc2C(=O)NCCN)cc1 [N-(2-aminoethyl)[4-(4-cyanophenyl)-2-({2-[(5-nitro(2-pyridyl))amino]ethyl}amino)pyrimidin-5-yl]carboxamide]	≥ 6.00
NC(=O)c1ccc(-c2ccnc(NCCCOc3ccccc3)n2)cc1 [4-{2-[(3-phenoxypropyl)amino]pyrimidin-4-yl}benzamide]	≥ 5.00
N#Cc1ccc(-c2nc(NCCNc3ccc([N+](=O)[O-])cn3)ncc2NCc2ccccc2)cc1 [4-[2-({2-[(5-nitro(2-pyridyl))amino]ethyl}amino)-5-[benzylamino]pyrimidin-4-yl]benzenecarbonitrile]	≥ 6.00
O=C(O)c1c(-c2ccccc2)nc(NCCNc2ccc([N+](=O)[O-])cn2)nc1-c1ccccc1F [6-(2-fluorophenyl)-2-({2-[(5-nitro(2-pyridyl))amino]ethyl}amino)-4-phenyl-pyrimidine-5-carboxylic acid]	≥ 5.00
Nc1nc(NCCNc2ncc(-c3ccncc3)c(-c3ccc(Cl)cc3Cl)n2)ccc1[N+](=O)[O-] [{2-[(6-amino-5-nitro(2-pyridyl))amino]ethyl}[4-(2,4-dichlorophenyl)-5-(4-pyridyl)pyrimidin-2-yl]amine]	≥ 6.00
CCOC(=O)c1cnc(NCCNc2ccc(N)cn2)nc1-c1ccc(C#N)cc1 [ethyl 2-({2-[(5-amino(2-pyridyl))amino]ethyl}amino)-4-(4-cyanophenyl)pyrimidine-5-carboxylate]	≥ 5.00
O=[N+]([O-])c1ccc(NCCNc2ccc([N+](=O)[O-])c(NCc3ccc(Cl)cc3Cl)n2)nc1 [(6-{[(2,4-dichlorophenyl)methyl]amino}-5-nitro(2-pyridyl)){2-[(5-nitro(2-pyridyl))amino]ethyl}amine]	≥ 5.00
O=C(NCc1cccc(Br)c1)c1ccc(-c2ccnc(NCCNc3ccc4ccccc4n3)n2)cc1 [N-[(3-bromophenyl)methyl][4-(2-{[2-(2-quinolylamino)ethyl]amino}pyrimidin-4-yl)phenyl]carboxamide]	≥ 5.00
CCOC(=O)c1c(CC)nc(NCCNc2ccc([N+](=O)[O-])cn2)nc1-c1ccc(C#N)cc1 [ethyl 4-(4-cyano-phenyl)-6-ethyl-2-({2-[(5-nitro(2-pyridyl))amino]ethyl}amino)pyrimidine-5-carboxylate]	≥ 6.00
Nc1nc(NCCNc2ncc(N3C(=O)CCC3=O)c(-c3ccc(Cl)cc3Cl)n2)ccc1[N+](=O)[O-] [1-[2-({2-[(6-amino-5-nitro(2-pyridyl))amino]ethyl}amino)-4-(2,4-dichlorophenyl)pyrimidin-5-yl]-pyrrolidine-2,5-dione]	≥ 6.00
O=[N+]([O-])c1ccc(NCCNc2ccc([N+](=O)[O-])c(NCc3ccccc3)n2)nc1 [{2-[(5-nitro(2-pyridyl))amino]ethyl}{5-nitro-6-[benzylamino](2-pyridyl)}amine]	≥ 5.00
CCOC(=O)c1ccc(-c2ccnc(NCCNc3ccc([N+](=O)[O-])cn3)n2)cc1 [ethyl 4-[2-({2-[(5-nitro-2-pyridyl)amino]ethyl}amino)pyrimidin-4-yl]benzoate]	≥ 5.00
NC(=O)c1ccc(-c2ccnc(NCCNc3ccccn3)n2)cc1 [4-(2-{[2-(2-pyridylamino)ethyl]-amino}pyrimidin-4-yl)benzamide]	≥ 6.00
CCOC(=O)c1cnc(NCCNc2ccc([N+](=O)[O-])cn2)nc1-c1ccc(N(C)C)cc1 [ethyl 4-[4-(dimethylamino)phenyl]-2-({2-[(5-nitro(2-pyridyl))amino]ethyl}-amino)pyrimidine-5-carboxylate]	≥ 6.00
Clc1ccc(-c2ccnc(NCCNc3ccccn3)n2)c(Cl)c1 [[4-(2,4-dichlorophenyl)pyrimidin-2-yl][2-(2-pyridylamino)ethyl]amine]	≥ 5.00
NC(=O)c1ccc(-c2ccnc(NCCCOc3ccc4ccccc4c3)n2)cc1 [4-{2-[(3-(2-naphthyloxy)propyl)amino]pyrimidin-4-yl}benzamide]	≥ 5.00
O=[N+]([O-])c1ccc(NCCNc2nccc(-c3cccc(O)c3)n2)nc1 [3-[2-({2-[(5-nitro-2-pyridyl)amino]ethyl}-amino)pyrimidin-4-yl]phenol]	≥ 5.00

More lines, now with the values ahead:

pIC50	SMILES
≥ 5.00	COc1ccc(-c2nc(NCCNc3ccc([N+](=O)[O-])cn3)nc(-c3ccc([N+](=O)[O-])cc3)c2C(=O)O)cc1 [4-(4-methoxyphenyl)-2-({2-[(5-nitro(2-pyridyl))amino]ethyl}-amino)-6-(4-nitrophenyl)pyrimidine-5-carboxylic acid]
≥ 5.00	CCOC(=O)c1cnc(NCCNc2ncccn2)nc1-c1ccc(C#N)cc1 [ethyl 4-(4-cyanophenyl)-2-{[2-(pyrimidin-2-ylamino)ethyl]amino}pyrimidine-5-carboxylate]
≥ 5.00	N#Cc1ccc(NCCNc2ccc([N+](=O)[O-])c(NCc3ccccc3)n2)nc1 [6-{[2-({5-nitro-6-[benzylamino]-2-pyridyl}amino)ethyl]amino}pyridine-3-carbonitrile]
≥ 5.00	N#Cc1ccc(-c2ccnc(NCCNc3ccccn3)n2)cc1 [4-(2-{[2-(2-pyridylamino)ethyl]amino}pyrimidin-4-yl)benzenecarbonitrile]
≥ 6.00	Cc1cn(-c2cnc(NCCNc3ccc([N+](=O)[O-])cn3)nc2-c2ccc(Cl)cc2Cl)cn1 [[4-(2,4-dichlorophenyl)-5-(4-methylimidazolyl)pyrimidin-2-yl]{2-[(5-nitro(2-pyridyl))amino]ethyl}amine]
≥ 5.00	O=C(NCc1cccc(Br)c1)c1ccc(-c2ccnc(NCCNc3ccc([N+](=O)[O-])cc3)n2)cc1 [N-[(3-bromophenyl)-methyl]{4-[2-({2-[(4-nitrophenyl)amino]ethyl}amino)pyrimidin-4-yl]phenyl}carboxamide]
≥ 5.00	O=C(O)c1c(-c2ccccc2)nc(NCCNc2ccc([N+](=O)[O-])cn2)nc1-c1ccc([N+](=O)[O-])cc1 [2-({2-[(5-nitro(2-pyridyl))amino]ethyl}-amino)-6-(4-nitrophenyl)-4-phenylpyrimidine-5-carboxylic acid]
≥ 5.00	NC(=O)c1ccc(-c2ccnc(NCc3ccc(Br)cc3)n2)cc1 [4-(2-{[(4-bromophenyl)methyl]amino}pyrimidin-4-yl)benzamide]
≥ 6.00	Cc1c[nH]c(-c2cnc(NCCNc3ccc([N+](=O)[O-])c(N)n3)nc2-c2ccc(Cl)cc2Cl)n1 [{2-[(6-amino-5-nitro(2-pyridyl))amino]-ethyl}[4-(2,4-dichlorophenyl)-5-(4-methylimidazol-2-yl)pyrimidin-2-yl]amine]
≥ 6.00	N#Cc1ccc(-c2nc(NCCNc3ccc([N+](=O)[O-])cn3)ncc2C(=O)O)cc1 [4-(4-cyanophenyl)-2-({2-[(5-nitro(2-pyridyl))amino]ethyl}amino)pyrimidine-5-carboxylic acid]
≥ 6.00	COc1ccc(OCCCNc2nccc(-c3ccc(C(N)=O)cc3)n2)cc1 [4-(2-{[3-(4-methoxyphenoxy)propyl]-amino}pyrimidin-4-yl)benzamide]
≥ 5.00	NC(=O)c1ccc(-c2ccnc(NCc3cc(C(F)(F)F)cc(C(F)(F)F)c3)n2)cc1 [4-[2-({[3,5-bis(trifluoromethyl)phenyl]methyl}amino)pyrimidin-4-yl]benzamide]
≥ 5.00	O=C(NC1CC1c1ccccc1)c1ccc(-c2ccnc(NCCNc3ccc([N+](=O)[O-])cn3)n2)cc1 (stereo not shown) [{4-[2-({2-[(5-nitro(2-pyridyl))amino]ethyl}amino)pyrimidin-4-yl]phenyl}-N-(2-phenylcyclopropyl)-carboxamide]
≥ 6.00	CCOC(=O)c1c(CC)nc(NCCNc2ccc(C#N)cn2)nc1-c1ccc(C(N)=O)cc1 [ethyl 4-(4-carbamoylphenyl)-2-({2-[(5-cyano(2-pyridyl))amino]ethyl}amino)-6-ethylpyrimidine-5-carboxylate]
≥ 5.00	COc1cccc(NCCNc2nccc(-c3ccc(C(=O)NCc4cccc(Br)c4)cc3)n2)n1 [N-[(3-bromophenyl)methyl]{4-[2-({2-[(6-methoxy(2-pyridyl))amino]ethyl}amino)pyrimidin-4-yl]phenyl}carboxamide]
≥ 5.00	CCc1ccc(-c2nc(N(C)CCNc3ccc(C#N)cn3)ccc2N2CCN(C)CC2=O)cc1 [6-({2-[[6-(4-ethylphenyl)-5-(4-methyl-2-oxo-1-piperazinyl)-2-pyridinyl](methyl)amino]ethyl}amino)nicotinonitrile]
≥ 6.00	CCOC(=O)c1cnc(NCCNc2ccc([N+](=O)[O-])cn2)nc1-c1ccncc1 [ethyl 2-({2-[(5-nitro(2-pyridyl))amino]ethyl}amino)-4-(4-pyridyl)pyrimidine-5-carboxylate]
≥ 5.00	O=[N+]([O-])c1ccc(NCCNc2nccc(-c3ccc(-c4nc(Cl)c(Cl)[nH]4)cc3)n2)nc1 [{4-[4-(4,5-dichloroimidazol-2-yl)phenyl]-pyrimidin-2-yl}{2-[(5-nitro(2-pyridyl))amino]ethyl}amine]
≥ 5.00	CCOC(=O)c1cnc(NCCNc2ccc([N+](=O)[O-])cn2)nc1Nc1ccc(Cl)cc1Cl [ethyl 4-[(2,4-dichlorophenyl)amino]-2-({2-[(5-nitro(2-pyridyl))amino]-ethyl}amino)pyrimidine-5-carboxylate]
≥ 5.00	CCOC(=O)c1cnc(NCCc2ccccn2)nc1-c1ccc(F)cc1 [ethyl 4-(4-fluorophenyl)-2-[(2-(2-pyridyl)ethyl)amino]pyrimidine-5-carboxylate]
≥ 6.00	O=[N+]([O-])c1ccc(NCCNc2ncc(-n3cnc4ccccc43)c(-c3ccc(Cl)cc3Cl)n2)nc1 [[5-benzimidazolyl-4-(2,4-dichlorophenyl)pyrimidin-2-yl]{2-[(5-nitro-(2-pyridyl))amino]ethyl}amine]
≥ 6.00	CCOC(=O)c1cnc(NCCNc2ccc([N+](=O)[O-])cn2)nc1-c1ccc(SC)cc1 [ethyl 4-(4-methylthiophenyl)-2-({2-[(5-nitro(2-pyridyl))amino]ethyl}amino)pyrimidine-5-carboxylate]
